Source: patent publication US7855290B2, “Pyridine derivatives and pyrimidine derivatives (3)” (Eisai R&D Management Co., Ltd., priority 2005, dated 2010)
pIC50: −log10 of the molar value.

Tests used:
[1] = test system: Human gastric cancer cells (MKN-45); assay: Inhibitory activity against the proliferation of human gastric cancer cells (MKN-45); format: cell-based; settings: 72 h, MKN-45, 1% FBS RPMI1640, 3 days, Cell Counting Kit-8
Procedure, shortened: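 MKN-45 cells seeded overnight in RPMI1640 with 1% FBS, then exposed to compound for 3 days at 37° C, 5% CO2. Viability read with CCK-8 after about 1.5 hrs, absorbance at 450 nm (reference 660 nm).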

[2] = biological target: T1, His6-HGFR (HGFR cytoplasmic domain) (Homo sapiens, UniProt P08581); assay: Inhibitory activity against HGFR tyrosine kinase activity (HTRF); format: biochemical; settings: biotin-poly(GT), ATP, 30° C. 10 min
T1 construct: made in house; host or cells: Sf9 insect cells (Spodoptera frugiperda), baculovirus, pFastBac-HT vector
T1 sequence (P08581 956-1390 limits assumed): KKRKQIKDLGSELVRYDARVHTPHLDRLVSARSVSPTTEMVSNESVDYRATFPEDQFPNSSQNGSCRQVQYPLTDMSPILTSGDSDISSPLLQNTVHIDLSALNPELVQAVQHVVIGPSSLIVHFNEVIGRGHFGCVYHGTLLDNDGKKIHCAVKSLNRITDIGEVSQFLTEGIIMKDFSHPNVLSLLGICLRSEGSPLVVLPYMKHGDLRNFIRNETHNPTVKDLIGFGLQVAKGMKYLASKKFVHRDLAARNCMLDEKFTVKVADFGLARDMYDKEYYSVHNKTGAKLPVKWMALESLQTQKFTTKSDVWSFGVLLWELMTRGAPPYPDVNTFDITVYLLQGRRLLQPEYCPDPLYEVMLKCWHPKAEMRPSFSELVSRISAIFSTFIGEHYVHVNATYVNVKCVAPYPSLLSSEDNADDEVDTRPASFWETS
Source text: The cytoplasmic domain of HGFR (Genbank Accession No. J02958) is a 1.3 kb DNA fragment beginning with Lys974 and including a stop codon, and described by Park et al. (Proc. Natl. Acad. Sci. U.S.A. 84(18), 6379-6383, 1987). The DNA fragment was isolated from the human placental cDNA library (purchased from Clontech) by PCR (TaKaRa Ex Taq™ Kit, purchased from TaKaRa) using two kinds of primers (SEQ ID NO: 1,5′-[…]-3′ and SEQ ID NO: 2,5′-[…]-3′, purchased from Invitrogen). The DNA fragment was cloned into a baculovirus transplace vector (pFastBac™-HT (purchased from GIBCO BRL)) to produce a recombinant construct. […] EGFR was purchased from Sigma (Production No. E-2645).
To the suspension of Sf9 cells (3×10^8 cells) in SF-900II medium (purchased from Invitrogen) containing 2% FBS was added a solution of HGFR transfected baculovirus above (4 ml), followed by a shaking culture at 27° C. for 48 hrs. The cells infected with the HGFR transfected baculovirus were centrifuged at 1,000 rpm, 4° C. for 5 min to remove the supernatant. The precipitated infected cells were suspended in 80 ml of ice-cold PBS, and centrifuged at 1,000 rpm, 4° C. for 5 min to remove the supernatant. The precipitated infected cells were suspended in 40 ml of ice-cold Lysis Buffer (50 mM Tris-HCl (pH 8.5), 5 mM 2-mercaptoethanol, 100 mM KCl, 1 mM PMSF and 1% (v/v) NP-40). The suspension was centrifuged at 12,000 rpm, 4° C. for 30 min to provide a supernatant.
The supernatant was loaded onto an Ni-NTA agarose column (3 ml, purchased from Qiagen) equilibrated with 30 ml of Buffer A (20 mM Tris-HCl (pH 8.5), 5 mM 2-mercaptoethanol, 500 mM KCl, 20 mM imidazole and 10% (v/v) glycerol). The column was washed with 30 ml of Buffer A, 6 ml of Buffer B (20 mM Tris-HCl (pH 8.5), 5 mM 2-mercaptoethanol, 1 M KCl, and 10% (v/v) glycerol) and 6 ml of Buffer A in this order. Then, the column was eluted with 6 ml of Buffer C (20 mM Tris-HCl (pH 8.5), 5 mM 2-mercaptoethanol, 100 mM KCl, 100 mM imidazole, and 10% (v/v) glycerol) to provide a fraction. The fraction was entrapped in a dialysis membrane (purchased from Spectrum Laboratories), dialyzed at 4° C. overnight with 1 L of dialysis buffer (20 mM Tris-HCl (pH 7.5), 10% (v/v) glycerol, 1 mM dithiothreitol, 0.1 mM Na3VO4 and 0.1 mM EGTA), and stored at −80° C. until used. […] The VEGFR2 cytoplasmic domain, the FGFR1 cytoplasmic domain, and the PDGFRβ cytoplasmic domain were fused with six histidine at the N terminus by the similar method to produce respective recombinant proteins (His6-VEGFR2, His6-FGFR1, and His6-PDGFRβ).
To each well of a 96-well round plate (purchased from NUNC, Production No. 163320) were added 10 μl of a solution for kinase reaction (200 mM Hepes (pH 7.4), 80 mM MgCl2, 16 mM MnCl2 and 2 mM Na3VO4), 250 ng of biotinylated poly(Glu4: Tyr1) (biotin-poly(GT), purchased from Japan Schering) (6 μl, 15-fold diluted with distilled water), 30 ng of His6-HGFR (10 μl, 60-fold diluted with 0.4% BSA) and a test substance dissolved in dimethylsulfoxide (4 μl, 100-fold diluted with 0.1% BSA) to mess up to 30 μl. To the well was added 10 μl of 4 μM ATP (purchased from Sigma) diluted with distilled water to incubate at 30° C. for 10 min, followed by adding 10 μl of 500 mM EDTA (pH 8.0) (purchased from Wako Pure Chemicals) to provide a kinase reaction solution.
The tyrosine-phosphorylated biotin-poly(GT) was detected using the Homogenous Time-Resolved Fluorescence (HTRF) method (Analytical Biochemistry, 269, 94-104, 1999).

Compound | pIC50 [1] | pIC50 [2]
CN(C)CCN1CCC(N(C)C(=O)Nc2cc(Oc3ccc(NC(=O)C4(C(=O)Nc5ccc(F)cc5)CC4)cc3)ccn2)CC1 [Example 39, N-(4-{[2-({[{1-[2-(Dimethylamino)ethyl]piperidin-4-yl}(methyl)amino]carbonyl}amino)pyridin-4-yl]oxy}phenyl)-N′-(4-fluorophenyl)cyclopropane-1,1-dicarboxamide] | 7.42 | 7.00
CN(C)C1CCN(C(=O)Nc2cc(Oc3ccc(NC(=O)C4(C(=O)Nc5ccc(F)cc5)CC4)cc3F)ccn2)CC1 [Example 23, N-(4-{[2-({[4-(Dimethylamino)piperidin-1-yl]carbonyl}amino)pyridin-4-yl]oxy}-3-fluorophenyl)-N′-(4-fluorophenyl)cyclopropane-1,1-dicarboxamide] | 7.44 | 7.35
CN(C)[C@@H]1CCN(C(=O)Nc2cc(Oc3ccc(NC(=O)C4(C(=O)Nc5ccccc5)CC4)c(F)c3)ccn2)C1 [Example 59, N-(4-{[2-({[(3R)-3-(Dimethylamino)pyrrolidin-1-yl]carbonyl}amino)pyridin-4-yl]oxy}-2-fluorophenyl)-N′-phenylcyclopropane-1,1-dicarboxamide] | 7.36 | 7.12
CN1CCN(C2CCN(C(=O)Nc3cc(Oc4ccc(NC(=O)C5(C(=O)Nc6ccc(F)cc6)CC5)cc4F)ccn3)CC2)CC1 [Example 20, N-(3-Fluoro-4-{[2-({[-4-(4-methylpiperazin-1-yl)piperidin-1-yl]-carbonyl}amino)pyridin-4-yl]oxy}phenyl)-N′-(4-fluorophenyl)cyclopropane-1,1-dicarboxamide] | 7.82 | 7.23
CN1CC(N2CCN(C(=O)Nc3cc(Oc4ccc(NC(=O)C5(C(=O)Nc6ccc(F)cc6)CC5)cc4F)ccn3)CC2)C1 [Example 22, N-(3-Fluoro-4-{[2-({[4-(1-methylazetidin-3-yl)piperazin-1-yl]carbonyl}amino)pyridin-4-yl]oxy}phenyl)-N′-(4-fluorophenyl)cyclopropane-1,1-dicarboxamide] | 7.89 | 7.30
O=C(Nc1cc(Oc2ccc(NC(=O)C3(C(=O)Nc4ccc(F)cc4)CC3)c(F)c2)ccn1)N1CC(CO)C1 [Example 75] | 7.72 | 8.00
CN1CCC(N2CCN(C(=O)Nc3cc(Oc4ccc(NC(=O)C5(C(=O)Nc6ccc(F)cc6)CC5)cc4F)ccn3)CC2)CC1 [Example 19, N-(3-Fluoro-4-{[2-({[4-(1-methylpiperidin-4-yl)piperazin-1-yl]carbonyl}amino)pyridin-4-yl]oxy}phenyl)-N′-(4-fluorophenyl)cyclopropane-1,1-dicarboxamide] | 7.92 | 7.21
CN(C)C1CN(C2CCN(C(=O)Nc3cc(Oc4ccc(NC(=O)C5(C(=O)Nc6ccc(F)cc6)CC5)c(F)c4)ccn3)CC2)C1 [Example 14, N-[4-({2-[({4-[3-(Dimethylamino)azetidin-1-yl]piperidin-1-yl}carbonyl)amino]pyridin-4-yl}oxy)-2-fluorophenyl]-N′-(4-fluorophenyl)cyclopropane-1,1-dicarboxamide] | 7.77 | 7.22
CN(C)CC1CN(C(=O)Nc2cc(Oc3ccc(NC(=O)C4(C(=O)Nc5ccc(F)cc5)CC4)c(F)c3)ccn2)C1 [Example 77, N-[4-({2-[({3-[(Dimethylamino)methyl]azetidin-1-yl}carbonyl)amino]pyridin-4-yl}oxy)-2-fluorophenyl]-N′-(4-fluorophenyl)cyclopropane-1,1-dicarboxamide] | 7.72 | 7.24
O=C(Nc1cc(Oc2ccc(NC(=O)C3(C(=O)Nc4ccc(F)cc4)CC3)c(F)c2)ccn1)N1CC(O)C1 [Example 72, N-{2-Fluoro-4-[(2-{[(3-hydroxyazetidin-1-yl)carbonyl]amino}pyridin-4-yl)oxy]phenyl}-N′-(4-fluorophenyl)cyclopropane-1,1-dicarboxamide] | 7.66 | 8.00
CN1CCN(C(=O)Nc2cc(Oc3cc(F)c(NC(=O)C4(C(=O)Nc5ccc(F)cc5)CC4)cc3F)ccn2)CC1 [Example 104, N-{2,5-Difluoro-4-[(2-{[(4-methylpiperazin-1-yl)carbonyl]amino}pyridin-4-yl]oxy}phenyl)-N′-(4-fluorophenyl)cyclopropane-1,1-dicarboxamide] | 8.17 | 7.15
O=C(Nc1cc(Oc2ccc(NC(=O)C3(C(=O)Nc4ccc(F)cc4)CC3)cc2F)ccn1)N1CCC(N2CCCC2)CC1 [Example 10, N-(4-Fluorophenyl)-N′-{3-fluoro-4-[(2-{[(4-pyrrolidin-1-ylpiperidin-1-yl)carbonyl]amino}pyridin-4-yl)oxy]phenyl}cyclopropane-1,1-dicarboxamide] | 7.38 | 7.27
O=C(Nc1cc(Oc2ccc(NC(=O)C3(C(=O)Nc4ccc(F)cc4)CC3)c(F)c2)ccn1)N1CCC(CN2CCC2)CC1 [Example 37, N-(4-{[2-({[4-(Azetidin-1-ylmethyl)piperidin-1-yl]carbonyl}amino)pyridin-4-yl]oxy}-2-fluorophenyl)-N′-(4-fluorophenyl)cyclopropane-1,1-dicarboxamide] | 7.85 | 7.28
O=C(Nc1cc(Oc2ccc(NC(=O)C3(C(=O)Nc4ccc(F)cc4)CC3)cc2F)ccn1)N1CCC(CN2CCC2)CC1 [Example 26, N-(4-{[2-({[4-(Azetidin-1-ylmethyl)piperidin-1-yl]carbonyl}amino)pyridin-4-yl]oxy}-3-fluorophenyl)-N′-(4-fluorophenyl)cyclopropane-1,1-dicarboxamide] | 7.72 | 7.24
O=C(Nc1cc(Oc2ccc(NC(=O)C3(C(=O)Nc4ccc(F)cc4)CC3)cc2)ccn1)N1CCN(CCN2CCC2)CC1 [Example 28, N-(4-{[2-({[4-(2-Azetidin-1-ylethyl)piperazin-1-yl]carbonyl}amino)pyridin-4-yl]oxy}phenyl)-N′-(4-fluorophenyl)cyclopropane-1,1-dicarboxamide] | 7.27 | 7.14
O=C(Nc1cc(Oc2ccc(NC(=O)C3(C(=O)Nc4ccc(F)cc4)CC3)c(F)c2)ccn1)N1CCC(CN2CCCC2)CC1 [Example 40, N-(4-Fluorophenyl)-N′-(2-fluoro-4-{[2-({[4-(pyrrolidin-1-ylmethyl)piperidin-1-yl]carbonyl}amino)pyridin-4-yl]oxy}phenyl)cyclopropane-1,1-dicarboxamide] | 7.77 | 7.26
O=C(Nc1cc(Oc2ccc(NC(=O)C3(C(=O)Nc4ccc(F)cc4)CC3)cc2F)ccn1)N1CC(O)C1 [Example 80, N-{3-Fluoro-4-[(2-{[(3-hydroxyazetidin-1-yl)carbonyl]amino}pyridin-4-yl)oxy]phenyl}-N′-(4-fluorophenyl)cyclopropane-1,1-dicarboxamide] | 7.74 | 7.74
O=C(Nc1cc(Oc2ccc(NC(=O)C3(C(=O)Nc4ccc(F)cc4)CC3)cc2F)ncn1)N1CCOCC1 [Example 35, N-[3-Fluoro-4-({6-{(morpholin-4-ylcarbonyl)amino}pyrimidin-4-yl}oxy)phenyl]-N′-(4-fluorophenyl)cyclopropane-1,1-dicarboxamide] | 6.64 | 7.54
